pIC50: −log10 of the molar value. *1 amine or outer side, *2 acyl side, *3 side chain or, on linkers, in order; H or OH if unused. Where a SMILES comes first, the peptide text is derived from it. Bridges are numbered along the chain shown (N, C = ends). [ ]: non-standard residue; d: D form. The star is where a group is joined. ξ: configuration not given here. Phe(3-CF3) = N[C@@H](Cc1cccc(C(F)(F)F)c1)C(=O)O; Phe(4-COOH) = N[C@@H](Cc1ccc(C(=O)O)cc1)C(=O)O; Bip = N[C@@H](Cc1ccc(-c2ccccc2)cc1)C(=O)O; Phe(3-Me) = Cc1cccc(C[C@H](N)C(=O)O)c1; γGlu = O=C(O)[C@H](CCC(=O)[*:2])N[*:1]; NH(CH2)12COOH = O=C(O)CCCCCCCCCCCCN*; Val(3-OH) = CC(C)(O)[C@H](N)C(=O)O; X14 = O=C([C@H](CCCCO)N[*:1])[*:2]; hArg = N=C(N)NCCCC[C@H](N)C(=O)O; 4Pal = N[C@@H](Cc1ccncc1)C(=O)O; Aad = N[C@@H](CCCC(=O)O)C(=O)O; Cha = N[C@@H](CC1CCCCC1)C(=O)O; Cit = NC(=O)NCCC[C@H](N)C(=O)O; Ile(3ξ) = CCC(C)[C@H](N)C(=O)O; Thr(3ξ) = CC(O)[C@H](N)C(=O)O; 12Ado = NCCCCCCCCCCCC(=O)O; 4Abz = Nc1ccc(C(=O)O)cc1; Carboxymethyl = O=C(O)C*; NMeA = CN[C@@H](C)C(=O)O; Orn = NCCC[C@H](N)C(=O)O; Aun = NCCCCCCCCCCC(=O)O; Dab = NCC[C@H](N)C(=O)O; Dap = NC[C@H](N)C(=O)O; AEEA = NCCOCCOCC(=O)O
target: T1, PD-1/PD-L1 interaction (PE-labeled human PD-L1-Ig binding to Jurkat cell line over-expressing human PD-1) (Homo sapiens, UniProt Q15116); assay: Jurkat-PD-1 Cell Binding High-Content Screening Assay (CBA); details: Jurkat-hPD-1 cells, PE-labeled PD-L1-Ig 20 nM final; read-out: Jurkat HPD1 PDL1 IC50
T1 construct: expressed in transfected cells; host or cells: Jurkat
T1 sequence (Q15116 25-288): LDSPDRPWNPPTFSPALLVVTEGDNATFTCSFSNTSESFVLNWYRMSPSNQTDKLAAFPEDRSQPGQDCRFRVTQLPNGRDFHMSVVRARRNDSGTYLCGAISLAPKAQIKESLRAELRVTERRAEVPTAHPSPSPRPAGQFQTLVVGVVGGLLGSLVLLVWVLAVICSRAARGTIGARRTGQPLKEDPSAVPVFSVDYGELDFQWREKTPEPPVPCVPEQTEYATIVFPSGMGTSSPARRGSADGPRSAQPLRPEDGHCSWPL
Summary of the method: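 Read-out: high-content imaging of cell-bound PE fluorescence, with Hoechst 33342 nuclear counterstain after paraformaldehyde fixation. Before labeled ligand (20 nM final, 1 h) was added, compound sat on the cells for 2 h at 37 °C in DMEM/10% FCS.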

Row | pIC50 | Structure (SMILES)
1 | 6.84 | CC(C)C[C@@H]1NC(=O)[C@H](Cc2c[nH]c3ccccc23)NC(=O)[C@H](CC(=O)O)NC(=O)[C@H](Cc2ccc(C(=O)O)cc2)NC(=O)[C@H](Cc2ccncc2)NC(=O)CSC[C@@H](C(=O)N[C@@H](CCN)C(=O)NCCOCCOCC(=O)NCCCCCCCCCCC(=O)O)NC(=O)[C@H](CCC(=O)O)NC(=O)[C@H](C(C)(C)O)NC(=O)[C@H](CC2CCCCC2)NC(=O)[C@H](CCN)NC(=O)[C@@H](CC(C)C)NC(=O)[C@H](C)N(C)C(=O)[C@H](C(C)C)NC(=O)[C@H](Cc2ccc(-c3ccccc3)cc2)NC1=O [Example 1429] ({CH2CO}-[4Pal][Phe(4-COOH)]DWL[Bip]V[NMeA][dL][Dab][Cha][Val(3-OH)]EC[Dab][AEEA][Aun]-OH; thioether N-14)
2 | 7.59 | CCC(C)[C@@H]1NC(=O)[C@H](Cc2ccc(-c3ccccc3)cc2)NC(=O)[C@H](C(C)C)NC(=O)[C@H](Cc2c[nH]c3ccccc23)NC(=O)[C@H](CC(=O)O)NC(=O)[C@H](Cc2ccc(O)cc2)NC(=O)[C@H](C(C)O)NC(=O)CSC[C@@H](C(=O)N[C@@H](CC(N)=O)C(=O)NCCOCCOCC(=O)NCCCCCCCCCCC(=O)O)NC(=O)[C@H](CO)NC(=O)[C@H](C(C)C)NC(=O)[C@H](CC(C)C)NC(=O)[C@H](CCN)NC(=O)[C@@H](CC(C)C)NC(=O)[C@H](C)N(C)C1=O (stereo partly drawn) [Example 2050] ({CH2CO}-[Thr(3ξ)]YDWV[Bip][Ile(3ξ)][NMeA][dL][Dab]LVSCN[AEEA][Aun]-OH; thioether N-14)
3 | 7.71 | CC(C)C[C@@H]1NC(=O)[C@H](Cc2c[nH]c3ccccc23)NC(=O)[C@H](CC(=O)O)NC(=O)[C@H](Cc2ccc(OCC(=O)O)cc2)NC(=O)[C@H](CCCCNC(=N)N)NC(=O)CSC[C@@H](C(=O)NCC(=O)N[C@@H](CCCN)C(=O)NCCCCCCCCCCCC(=O)O)NC(=O)[C@H](CO)NC(=O)[C@H](C(C)C)NC(=O)[C@H](CC2CCCCC2)NC(=O)[C@H](CCN)NC(=O)[C@@H](CC(C)C)NC(=O)[C@H](C)N(C)C(=O)[C@H](C(C)C)NC(=O)[C@H](Cc2ccc(-c3ccccc3)cc2)NC1=O [Example 2121] ({CH2CO}-[hArg]Y(Carboxymethyl)DWL[Bip]V[NMeA][dL][Dab][Cha]VSCG[Orn][12Ado]-OH; thioether N-14)
4 | 7.30 | CC(C)C[C@H]1NC(=O)[C@H](C)N(C)C(=O)[C@H](CCCNC(N)=O)NC(=O)[C@H](Cc2ccc(-c3ccccc3)cc2)NC(=O)[C@H](Cc2ccc(C(=O)O)cc2)NC(=O)[C@H](Cc2cccc(C(F)(F)F)c2)NC(=O)[C@H](CC(=O)O)NC(=O)[C@H](Cc2ccc(OCC(=O)O)cc2)NC(=O)[C@H](Cc2ccc(C(=O)O)cc2)NC(=O)CSC[C@@H](C(=O)N[C@@H](CCN)C(=O)NCCOCCOCC(=O)N[C@@H](CCC(=O)NCCOCCOCC(=O)NCCCCCCCCCCCCC(=O)O)C(=O)O)NC(=O)[C@H](CCC(=O)O)NC(=O)[C@H](C(C)C)NC(=O)[C@H](CC2CCCCC2)NC(=O)[C@H](CCN)NC1=O [Example 1158] ({CH2CO}-[Phe(4-COOH)]Y(Carboxymethyl)D[Phe(3-CF3)][Phe(4-COOH)][Bip][Cit][NMeA][dL][Dab][Cha]VEC[Dab][AEEA][γGlu][AEEA]-{NH(CH2)12COOH}; thioether N-14)
5 | 7.79 | Cc1cccc(C[C@@H]2NC(=O)[C@H](CC(=O)O)NC(=O)[C@H](Cc3ccc(C(=O)O)cc3)NC(=O)[C@H](CCN)NC(=O)CSC[C@@H](C(=O)N[C@@H](CCN)C(=O)NCCCCCCCCCCC(=O)O)NC(=O)[C@H](CO)NC(=O)[C@H](C(C)(C)O)NC(=O)[C@H](CC3CCCCC3)NC(=O)[C@H](CCN)NC(=O)[C@@H](CC(C)C)NC(=O)[C@H](C)N(C)C(=O)[C@H](Cc3ccc(OCC(=O)O)cc3)NC(=O)[C@H](Cc3ccc(-c4ccccc4)cc3)NC(=O)[C@H](CCCC(=O)O)NC2=O)c1 [Example 1298] ({CH2CO}-[Dab][Phe(4-COOH)]D[Phe(3-Me)][Aad][Bip]Y(Carboxymethyl)[NMeA][dL][Dab][Cha][Val(3-OH)]SC[Dab][Aun]-OH; thioether N-14)
6 | 7.45 | CC(=O)NCCCC[C@@H]1NC(=O)[C@H](Cc2ccc(-c3ccccc3)cc2)NC(=O)[C@H](Cc2ccc(O)cc2)NC(=O)[C@H](Cc2cccc(C)c2)NC(=O)[C@H](CC(=O)O)NC(=O)[C@H](Cc2ccc(OCC(=O)O)cc2)NC(=O)[C@H](C(C)O)NC(=O)CSC[C@@H](C(=O)NCCOCCOCC(=O)NCCCCCCCCCCC(=O)O)NC(=O)[C@H](C(C)O)NC(=O)[C@H](C(C)C)NC(=O)[C@H](CC2CCCCC2)NC(=O)[C@H](CCN)NC(=O)[C@@H](CC(C)C)NC(=O)[C@H](C)N(C)C1=O (stereo partly drawn) [Example 2420] ({CH2CO}-[Thr(3ξ)]Y(Carboxymethyl)D[Phe(3-Me)]Y[Bip]K(Ac)[NMeA][dL][Dab][Cha]V[Thr(3ξ)]C[AEEA][Aun]-OH; thioether N-14)
7 | 6.85 | CC(C)C[C@H]1NC(=O)[C@H](C)N(C)C(=O)[C@H](Cc2ccc(OCC(=O)O)cc2)NC(=O)[C@H](Cc2ccc(-c3ccccc3)cc2)NC(=O)[C@H](Cc2ccc(OCC(=O)O)cc2)NC(=O)[C@H](Cc2c[nH]c3ccccc23)NC(=O)[C@H](CC(=O)O)NC(=O)[C@H](Cc2ccc(OCC(=O)O)cc2)NC(=O)[C@H]([C@@H](C)O)NC(=O)CSC[C@@H](C(=O)N[C@@H](CCCN)C(=O)NCCOCCOCC(=O)NCCCCCCCCCCC(=O)O)NC(=O)[C@H]([C@@H](C)O)NC(=O)[C@H](C(C)C)NC(=O)[C@H](CC2CCCCC2)NC(=O)[C@H](CCN)NC1=O [Example 1394] ({CH2CO}-TY(Carboxymethyl)DWY(Carboxymethyl)[Bip]Y(Carboxymethyl)[NMeA][dL][Dab][Cha]VTC[Orn][AEEA][Aun]-OH; thioether N-14)
8 | 7.81 | CCC(C)[C@@H]1NC(=O)[C@H](Cc2ccc(-c3ccccc3)cc2)NC(=O)[C@H](C(C)C)NC(=O)[C@H](Cc2c[nH]c3ccccc23)NC(=O)[C@H](CC(=O)O)NC(=O)[C@H](Cc2ccc(OCC(=O)O)cc2)NC(=O)[C@H](C(C)O)NC(=O)CSC[C@@H](C(=O)N[C@H](CC(N)=O)C(=O)NCCCCCCCCCCC(=O)O)NC(=O)[C@H](CO)NC(=O)[C@H](C(C)C)NC(=O)[C@H](CC2CCCCC2)NC(=O)[C@H](CCN)NC(=O)[C@@H](CC(C)C)NC(=O)[C@H](C)N(C)C1=O (stereo partly drawn) [Example 2209] ({CH2CO}-[Thr(3ξ)]Y(Carboxymethyl)DWV[Bip][Ile(3ξ)][NMeA][dL][Dab][Cha]VSC[dN][Aun]-OH; thioether N-14)
9 | 7.84 | Cc1cccc(C[C@@H]2NC(=O)[C@H](CC(=O)O)NC(=O)[C@H](Cc3ccc(C(=O)O)cc3)NC(=O)[C@H](Cc3ccc(OCC(=O)O)cc3)NC(=O)CSC[C@@H](C(=O)NCCOCCOCC(=O)NCCCCCCCCCCC(=O)O)NC(=O)[C@H](CCCCO)NC(=O)[C@H](C(C)C)NC(=O)[C@H](CC3CCCCC3)NC(=O)[C@H](CCN)NC(=O)[C@@H](CC(C)C)NC(=O)[C@H](C)N(C)C(=O)[C@H](Cc3ccc(O)cc3)NC(=O)[C@H](Cc3ccc(-c4ccccc4)cc3)NC(=O)[C@H](C(C)C)NC2=O)c1 [Example 2213] ({CH2CO}-Y(Carboxymethyl)[Phe(4-COOH)]D[Phe(3-Me)]V[Bip]Y[NMeA][dL][Dab][Cha]V[X14]C[AEEA][Aun]-OH; thioether N-14)

Row | Structure (SMILES) | pIC50
10 | CC(C)C[C@@H]1NC(=O)[C@H](Cc2c[nH]c3ccccc23)NC(=O)[C@H](CC(=O)O)NC(=O)[C@H](Cc2ccncc2)NC(=O)[C@H](Cc2ccc(OCC(=O)O)cc2)NC(=O)CSC[C@@H](C(=O)Nc2ccc(C(=O)NCCCCCCCCCCC(=O)O)cc2)NC(=O)[C@H](CN)NC(=O)[C@H](C(C)C)NC(=O)[C@H](CC2CCCCC2)NC(=O)[C@H](CCN)NC(=O)[C@@H](CC(C)C)NC(=O)[C@H](C)N(C)C(=O)[C@H](C(C)C)NC(=O)[C@H](Cc2ccc(-c3ccccc3)cc2)NC1=O [Example 1211] ({CH2CO}-Y(Carboxymethyl)[4Pal]DWL[Bip]V[NMeA][dL][Dab][Cha]V[Dap]C[4Abz][Aun]-OH; thioether N-14) | 6.43

same assay, conditions: PE-labeled PD-L1-Ig 20 nM final, Jurkat-hPD-1 cells; read-out: Jurkat HPD1 PDL1 IC50

Row | pIC50 | Structure (SMILES)
11 | 8.96 | CC(=O)NCCCC[C@@H]1NC(=O)[C@H](C(C)(C)O)NC(=O)[C@H](CC2CCCCC2)NC(=O)[C@H](CCN)NC(=O)[C@@H](CC(C)C)NC(=O)[C@H](C)N(C)C(=O)[C@H](CCC(N)=O)NC(=O)[C@H](Cc2ccc(-c3ccccc3)cc2)NC(=O)[C@H](Cc2ccc(C(=O)O)cc2)NC(=O)[C@H](Cc2cccc(C(F)(F)F)c2)NC(=O)[C@H](CC(=O)O)NC(=O)[C@H](Cc2ccc(OCC(=O)O)cc2)NC(=O)[C@H](Cc2ccc(OCC(=O)O)cc2)NC(=O)CSC[C@@H](C(=O)N[C@@H](CCN)C(=O)NCCCCCCCCCCC(=O)O)NC1=O [Example 2564] ({CH2CO}-Y(Carboxymethyl)Y(Carboxymethyl)D[Phe(3-CF3)][Phe(4-COOH)][Bip]Q[NMeA][dL][Dab][Cha][Val(3-OH)]K(Ac)C[Dab][Aun]-OH; thioether N-14)
12 | 7.24 | Cc1cccc(C[C@@H]2NC(=O)[C@H](CC(=O)O)NC(=O)[C@H](Cc3ccc(OCC(=O)O)cc3)NC(=O)[C@H]([C@@H](C)O)NC(=O)CSC[C@@H](C(=O)N[C@@H](CCN)C(=O)NCCCCCCCCCCCC(=O)NCCCCCCCCCCCC(=O)O)NC(=O)[C@H](CCC(=O)O)NC(=O)[C@H](C(C)C)NC(=O)[C@H](CC3CCCCC3)NC(=O)[C@H](CCN)NC(=O)[C@@H](CC(C)C)NC(=O)[C@H](C)N(C)C(=O)[C@H](Cc3ccc(OCC(=O)O)cc3)NC(=O)[C@H](Cc3ccc(-c4ccccc4)cc3)NC(=O)[C@H](Cc3ccc(OCC(=O)O)cc3)NC2=O)c1 [Example 2682] ({CH2CO}-TY(Carboxymethyl)D[Phe(3-Me)]Y(Carboxymethyl)[Bip]Y(Carboxymethyl)[NMeA][dL][Dab][Cha]VEC[Dab][12Ado][12Ado]-OH; thioether N-14)

Source: patent US20260070945A1, “MACROCYCLIC IMMUNOMODULATORS” (Bristol-Myers Squibb Company, priority 2022, published 2026)
